Test results from patent publication US20100029734A1, “METHODS FOR BREAST CANCER SCREENING AND TREATMENT” (Ore Pharmaceuticals Inc., priority 2008, published 2010).
Entries after “also recorded” stand apart in the source; their conditions may differ.

Experiments:
T47D (ER+ cell line) = assay: RT-CES cell proliferation assay, T47D; format: cell-based, human
Protocol: (§1) Unless otherwise indicated, cell proliferation assays described in Examples 2-5 were performed using a Real-Time Cell Electronic Sensing (RT-CES™ 96X) instrument from ACEA Bioscience (San Diego, Calif.). This instrument utilizes an electronic readout (impedance) to non-invasively quantify adherent cell proliferation and viability in real time.
(§2) Cells were seeded in 96-well microtiter plates containing microelectronic sensor arrays (96E plates; ACEA). Cells were maintained in RPMI 1640 (Invitrogen, Carlsbad, Calif.) supplemented with 10% fetal bovine serum (FBS) (Hyclone, Logan, Utah) and were cultured at 37° C. in a humidified atmosphere containing 5% CO2. For proliferation assays, cells were seeded (20,000 cells/well), allowed to attach and grown overnight in standard growth medium. Cells were then serum-starved for 8 hours prior to the proliferation assay in presence or absence of test compound(s). The proliferation response was continuously monitored by measuring the impedance change in each well for the indicated number of hours. Data are expressed as cell index (CI) change relative to time in culture, reflecting measured changes in electrical impedance. Each value shown is an average of 6 wells.
(§3) T47D (American Type Culture Collection, Manassas, Va. (ATCC) cat. HTB-133) is an ER+ cell line derived from human mammary gland ductal carcinoma Other ER+ cell lines used in studies reported herein include ZR-75 and HCC70. HCC1143 (ATCC cat. CRL-2321) is an ER− cell line also derived from human mammary gland ductal carcinoma.
(§4) Following the 8 hour starvation phase, either Ang II (Sigma-Aldrich), 500 nM, or vehicle control was added to the cell culture. […] Ang II also stimulated proliferation of ER+ cell lines HCC70, by approximately 30%, and ZR-75, by approximately 35%, relative to vehicle control (data not shown).

HCC1143 (ER− cell line) = assay: RT-CES cell proliferation assay, HCC1143; format: cell-based, human
Protocol: as §1, §2, §3, §4

T47D xenografts = assay: Growth of ER+ breast cancer cell line xenografts in NODscid mice; format: in vivo; settings: 3-5 weeks, female NODscid mice
Protocol: Female NODscid mice of age 5-6 weeks received a subcutaneous estrogen pellet implant (1.7 mg). Twenty four hours after estrogen pellet implantation, the mice received tumor implantation by subcutaneous injection of T47D cells to the flank (approximately 2.5×10^6 cells/mouse). The mice were ear-notched for identification and housed 4 animals per cage. […] Tumors were measured 3 times weekly using digital calipers. Body weight was measured twice weekly. Clinical observations were conducted weekly.

[1] = test system: cells cultured from invasive ductal carcinomas; settings: cells positive for ER and PR, cited from earlier work
HCC70 = assay: RT-CES cell proliferation assay, HCC70; format: cell-based, human
Protocol: as §1
as §2, with “wells. […]” for “wells.”

ZR-75 = assay: RT-CES cell proliferation assay, ZR-75; format: cell-based, human
Protocol: as §1
as §2, with “wells. […]” for “wells.”

HCC1395 = assay: RT-CES cell proliferation assay, HCC1395; format: cell-based, human
Protocol: as §1
as §2, with “wells. […]” for “wells.”

HCC1954 = assay: RT-CES cell proliferation assay, HCC1954; format: cell-based, human
Protocol: as §1
as §2, with “wells. […]” for “wells.”

HCC1937 = assay: RT-CES cell proliferation assay, HCC1937; format: cell-based, human
Protocol: as §1
as §2, with “wells. […]” for “wells.”

HCC38 = assay: RT-CES cell proliferation assay, HCC38; format: cell-based, human
Protocol: as §1
as §2, with “wells. […]” for “wells.”

T47D = settings: cited from earlier work
MCF-7 = settings: cited from earlier work
T47D (ER+, PR+) = settings: T47D cells; cited from earlier work
invasive breast cancer = settings: administered for 5 years; women having risk factors; cited from earlier work

For `CCCCC1=NC2(CCCC2)C(=O)N1Cc1ccc(-c2ccccc2-c2nnn[nH]2)cc1` [irbesartan], the “inhibition of Ang II-induced growth / cell proliferation” value (T47D (ER+ cell line); T47D, AT1 receptor antagonist 5 μM + Ang II 500 nM) was “significantly inhibited Ang II-induced growth; also recorded: reversed the Ang II effect”, the “effect on cell proliferation” value (HCC1143 (ER− cell line); HCC1143, AT1 receptor antagonist 5 μM + Ang II 500 nM, data not shown) was “No effects” and the “growth in tumor volume” value (T47D xenografts; irbesartan 30, 100, 300 mg/kg p.o. once daily) was “lowest dose tested (30 mg/kg) appeared to give the greatest effect”.
With `CCCc1nc2c(C)cc(-c3nc4ccccc4n3C)cc2n1Cc1ccc(-c2ccccc2C(=O)O)cc1` [telmisartan] the “inhibition of Ang II-induced growth” value (T47D (ER+ cell line); T47D, telmisartan 1.25 μM or 5 μM + Ang II 500 nM) was “significantly inhibited Ang II-induced growth” and the “effect on cell proliferation” value (HCC1143 (ER− cell line); HCC1143, telmisartan 1.25 μM or 5 μM + Ang II 500 nM) was “No effects”.
In the case of `CCCCc1nc(Cl)c(CO)n1Cc1ccc(-c2ccccc2-c2nn[nH]n2)cc1` [losartan], the “effect on Ang II-stimulated proliferation” value [1] is given as “blocked”.
In the case of “Ang II: peptide angiotensin II, a major regulator of blood pressure and cardiovascular homeostasis; from Sigma-Aldrich (DRVYIHPF; Angiotensin-2; UniProt P01019 25-32, looked up)”, the “Ang II proliferation response” value (T47D (ER+ cell line); T47D) is reported as “positive”, the “effect of Ang II on growth / cell proliferation” value (T47D (ER+ cell line); T47D (ER+), Ang II 500 nM vs vehicle control, after 8 h serum starvation) is reported as “significantly stimulated growth; also recorded: substantial increase in cell proliferation” and the “Ang II proliferation response” value (HCC1143 (ER− cell line); HCC1143) is reported as “negative”. For the same molecule, the “effect of Ang II on growth / cell proliferation” value (HCC1143 (ER− cell line); HCC1143 (ER−), Ang II 500 nM vs vehicle control) was “No effects”, the “Ang II proliferation response” value (HCC70; HCC70) was “positive” and the “stimulation of proliferation relative to vehicle control” value (HCC70; HCC70 (ER+), Ang II, data not shown) was “approximately 30%”. The “Ang II proliferation response” value (ZR-75; ZR-75) was “positive”, the “stimulation of proliferation relative to vehicle control” value (ZR-75; ZR-75 (ER+), Ang II, data not shown) was “approximately 35%” and the “Ang II proliferation response” value (HCC1395) was “negative”. The “Ang II proliferation response” value (HCC1954) was “negative”, the “Ang II proliferation response” value (HCC1937) was “negative” and the “Ang II proliferation response” value (HCC38) was “negative”. The “proliferation of cultured cells” value ([1]; Ang II) was “stimulated in a dose-dependent manner”, the “stimulation of cell growth by Ang II” value (T47D) was “significant stimulation of cell growth” and the proliferative effect (MCF-7) was “dose-dependent proliferative effect”.
For `C[C@H](CS)C(=O)N1CCC[C@H]1C(=O)O` [Captopril, (2S)-1-((2S)-2-methyl-3-sulfanylpropanoyl)pyrrolidine-2-carboxylic acid], the ER protein concentration (T47D (ER+, PR+)) is listed as “reduced ER”, the PR protein concentration (T47D (ER+, PR+)) is listed as “increased PR” and the “[3H]thymidine incorporation (an index of cell proliferation)” value (T47D (ER+, PR+)) is listed as “inhibited [3H]thymidine incorporation”.
In the case of `NCCCCC(NC(CCc1ccccc1)C(=O)O)C(=O)N1CCCC1C(=O)O.O.O` (stereo not shown) [lisinopril, 1-(6-amino-2-(1-carboxy-3-phenyl-propyl)aminohexanoyl)pyrrolidine-2-carboxylic acid dihydrate], the ER protein concentration (T47D (ER+, PR+)) is given as “No such effects”, the PR protein concentration (T47D (ER+, PR+)) is given as “No such effects” and the “[3H]thymidine incorporation (an index of cell proliferation)” value (T47D (ER+, PR+)) is given as “No such effects”.
For `CC/C(=C(\c1ccccc1)c1ccc(OCCN(C)C)cc1)c1ccccc1` [tamoxifen], the “effect on Ang II-induced cell proliferation” value (T47D (ER+ cell line); T47D, tamoxifen 7.5 μM + Ang II 500 nM) is listed as “reduced cell proliferation to a level lower than that of vehicle control”, the “growth in tumor volume” value (T47D xenografts; tamoxifen 0.1, 0.3, 1.0 mg/kg p.o. once daily) is listed as “reduced in a dose-dependent fashion” and the “reduction of incidence of invasive breast cancer” value (invasive breast cancer) is listed as about 50%.
For `CCOc1nc2cccc(C(=O)OC(C)OC(=O)OC3CCCCC3)c2n1Cc1ccc(-c2ccccc2-c2nnn[nH]2)cc1` (stereo not shown) [candesartan cilexetil], the “growth in tumor volume” value (T47D xenografts; candesartan cilexetil 10, 30, 100 mg/kg p.o. once daily) was “reduced in a dose-dependent fashion”.
